The source of these data is patent US7531555B2, “Compositions and methods for selective inhibition of nicotine acetylcholine receptors” (University of Florida Research Foundation, Inc., priority 2003, dated 2009).

For this assay, the target named is T1, Rat α6β4β3 (Rattus norvegicus, UniProt P12391+P12392+P43143).
T1 construct: oocytes expressing the complete wild-type α6 subunits were tested; expressed in transfected cells; host or cells: Xenopus laevis oocytes injected with subunit cRNAs; clones from Dr. Jim Boulter (UCLA)
The assay can be described thus: Voltage clamp of Xenopus oocytes expressing α6β4β3 nAChR. It is filed as cell-based. Here is the method:
Mature (>9 cm) female Xenopus laevis African frogs (NASCO, Ft. Atkinson, Wis.) were used as a source of oocytes. Prior to surgery, frogs were anesthetized by placing the animal in a 1.5 g/l solution of MS222 (3-aminobenzoic acid ethyl ester) for 30 minutes. Oocytes were removed from an incision made in the abdomen.
In order to remove the follicular cell layer, harvested oocytes were treated with 1.25 mg/ml collagenase from Worthington Biochemical Corporation (Freehold, N.J.) for 2 hours at room temperature in calcium-free Barth's solution (88 mM NaCl, 10 mM HEPES pH 7.6, 0.33 mM MgSO4, 0.1 mg/ml gentamicin sulfate). Subsequently, stage 5 oocytes were isolated and injected with 50 nl (5-20 ng) each of the appropriate subunit cRNAs. Recordings were made 2 to 15 days after injection.
Rat neuronal nAChR clones and mouse muscle nAChR cDNA clones were used. The wild-type clones were obtained from Dr. Jim Boulter (UCLA). The rat α6/3 (Dowell et al. J Neurosci, 2003, 23:8445-8452) clone was obtained from Michael McIntosh (University of Utah) and expressed in Xenopus oocytes in combinations with rat β2 and β3. […] The TM2 domain is understood to line the pore of the channel, with alpha helix structure. The 7′ position may actually be directed away from the actual pore lining, but this residue is highly conserved in all of the nAChR. It is valine in all of them except α9 (isoleucine) and β1, where it is alanine. The TM2 mutation in the α6/3 chimera was corrected by using QuickChange (Stratagene) according to their protocols. The corrected α6/3 chimera sequence was confirmed by restriction diagnostics and by automated fluorescent sequencing (University of Florida core facility). The corrected clone was expressed as above in Xenopus oocytes with β2 and β3 and compared to the wild-type α3 co-expressed with β2 and β3.
After linearization and purification of cloned cDNAs, RNA transcripts were prepared in vitro using the appropriate mMessage mMachine kit from Ambion Inc. (Austin, Tex.).
Electrophysiology. The majority of experiments were conducted using OpusXpress 6000A (Axon Instruments, Union City Calif.). OpusXpress is an integrated system that provides automated impalement and voltage clamp of up to eight oocytes in parallel. Cells were automatically perfused with bath solution, and agonist solutions were delivered from a 96-well plate. Both the voltage and current electrodes were filled with 3 M KCl. The agonist solutions were applied via disposable tips, which eliminated any possibility of cross-contamination. Drug applications alternated between ACh controls and experimental applications. Flow rates were set at 2 ml/min for experiments with α7 receptors and 4 ml/min for other subtypes. Cells were voltage-clamped at a holding potential of −60 mV. Data were collected at 50 Hz and filtered at 20 Hz. Agonist applications were 12 seconds in duration followed by 181-second washout periods for α7 receptors and 8 seconds with 241-second wash periods for other subtypes. For some experiments, particularly under conditions where residual inhibition precluded making repeated measurements from single cells (see below), manual oocyte recordings were made as previously described (Papke and Papke Br J of Pharmacol, 2002, 137:49-61). In brief, Warner Instruments (Hamden, Conn.) OC-725C oocyte amplifiers were used, and data were acquired with a minidigi or digidata 1200A with pClamp9 software (Axon Instruments). Sampling rates were between 10 and 20 Hz and the data were filtered at 6 Hz. […]

Structures are written as SMILES. Where two headings read alike, the source gives them in different places.

T1 sequence (P43143 31-493): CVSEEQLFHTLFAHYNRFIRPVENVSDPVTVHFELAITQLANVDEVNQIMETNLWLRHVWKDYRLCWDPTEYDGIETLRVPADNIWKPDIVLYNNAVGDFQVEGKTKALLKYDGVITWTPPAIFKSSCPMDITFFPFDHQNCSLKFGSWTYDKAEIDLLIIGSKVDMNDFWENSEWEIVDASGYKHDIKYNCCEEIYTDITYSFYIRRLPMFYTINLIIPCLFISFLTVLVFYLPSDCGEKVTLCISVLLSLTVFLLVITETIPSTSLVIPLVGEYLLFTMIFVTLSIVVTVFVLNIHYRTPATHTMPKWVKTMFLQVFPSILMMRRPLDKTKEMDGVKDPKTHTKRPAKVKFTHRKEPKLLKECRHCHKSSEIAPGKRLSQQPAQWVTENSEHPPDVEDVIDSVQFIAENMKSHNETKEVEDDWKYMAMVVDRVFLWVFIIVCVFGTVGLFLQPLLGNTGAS
T1 sequence (P12392 21-495): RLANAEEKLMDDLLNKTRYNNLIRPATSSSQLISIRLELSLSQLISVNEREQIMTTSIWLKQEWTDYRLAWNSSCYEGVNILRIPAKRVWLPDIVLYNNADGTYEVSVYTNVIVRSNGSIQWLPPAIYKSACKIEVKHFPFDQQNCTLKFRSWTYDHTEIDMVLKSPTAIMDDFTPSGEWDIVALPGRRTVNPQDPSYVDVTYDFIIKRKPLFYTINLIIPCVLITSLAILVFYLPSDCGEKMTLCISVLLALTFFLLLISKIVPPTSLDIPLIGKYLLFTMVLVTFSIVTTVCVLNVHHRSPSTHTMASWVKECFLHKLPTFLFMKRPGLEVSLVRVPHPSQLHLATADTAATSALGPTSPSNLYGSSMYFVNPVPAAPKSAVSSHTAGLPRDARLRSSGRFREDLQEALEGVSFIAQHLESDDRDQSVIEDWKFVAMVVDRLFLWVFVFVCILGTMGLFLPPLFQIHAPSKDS
T1 sequence (P12391 31-464): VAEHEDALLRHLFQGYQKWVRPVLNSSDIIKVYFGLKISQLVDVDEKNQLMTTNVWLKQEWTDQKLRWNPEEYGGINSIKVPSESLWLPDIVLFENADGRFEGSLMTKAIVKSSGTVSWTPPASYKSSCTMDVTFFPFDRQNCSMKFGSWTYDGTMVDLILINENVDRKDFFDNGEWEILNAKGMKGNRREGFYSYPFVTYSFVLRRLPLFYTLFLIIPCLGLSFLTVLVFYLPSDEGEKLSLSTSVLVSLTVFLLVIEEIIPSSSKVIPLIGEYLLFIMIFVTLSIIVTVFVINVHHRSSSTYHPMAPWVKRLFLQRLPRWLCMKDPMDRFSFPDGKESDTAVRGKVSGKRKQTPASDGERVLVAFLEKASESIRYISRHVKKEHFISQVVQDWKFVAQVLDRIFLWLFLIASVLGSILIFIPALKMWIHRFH

Turning to `CCCCCCC(=O)OC1CC(C)(C)NC(C)(C)C1` [TMPH, 2,2,6,6-tetramethylpiperidin-4-yl heptanoate], the half-inhibitory concentration (IC50) was 18.3 ± 4.9 µM (decrease in net charge, 100 μM ACh co-applied with TMPH, read-out: IC50 (area)); 11 ± 4.4 µM (decrease in peak current amplitude, 100 μM ACh co-applied with TMPH, read-out: IC50 (peak)); 1700 ± 420 µM (inhibition still present after 5-minute wash, read-out: IC50 (recovery)). The “IC50 net charge/IC50 peak” value (ratio) is reported as 1.7. Moreover, the “IC50 recovery/IC50 net charge” value (ratio) stood at 93.
